Active and inactive are the calls of the source. How the calls were made is not given here.
molecular target: Delta-type opioid receptor (Homo sapiens) (UniProt P41143); assay: OPRD1 luminescent activation counter-screen – cell-based, luminescence, dose response, set 2, counter-screen for OPRM1-OPRD1 heterodimer activator project, late-stage follow-up (AID 651764); conditions: OPRD1 cell-based luminescence activation counterscreen
Sequence (P41143 whole entry, looked up): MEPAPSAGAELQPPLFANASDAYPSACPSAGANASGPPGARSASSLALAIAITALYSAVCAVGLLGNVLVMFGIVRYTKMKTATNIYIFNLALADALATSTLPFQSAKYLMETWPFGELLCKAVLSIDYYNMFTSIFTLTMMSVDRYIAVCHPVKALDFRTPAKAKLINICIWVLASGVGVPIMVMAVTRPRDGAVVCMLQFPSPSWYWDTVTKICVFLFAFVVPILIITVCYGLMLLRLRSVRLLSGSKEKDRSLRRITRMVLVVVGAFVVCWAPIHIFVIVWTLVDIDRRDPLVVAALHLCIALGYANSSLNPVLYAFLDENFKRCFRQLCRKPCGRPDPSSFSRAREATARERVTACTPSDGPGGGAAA

Compound	EC50
CCOC(=O)C1(Cc2ccc(OC)cc2)CCN(C(=O)c2ccc(N(C)C)cc2)CC1	> 50 µM (inactive)
CCOC(=O)C1(CCc2ccccc2)CCCN(Cc2ccc(N3CCNC3=O)cc2)C1 (stereo not drawn)	> 50 µM (inactive)
CCOC(=O)C1(Cc2ccccc2)CCCN(Cc2ccc(NC(C)=O)cc2)C1 (stereo not drawn)	> 50 µM (inactive)
CCOC(=O)C1(CC2CC2)CCN(C(=O)c2ccc(N3CCCCC3)cc2)CC1	> 50 µM (inactive)
CCOC(=O)C1(Cc2cccc(OC)c2)CCCN(Cc2ccc(NC(C)=O)cc2)C1 (stereo not drawn)	> 50 µM (inactive)
CCOC(=O)C1(CC2CC2)CCN(Cc2ccc(NC(C)=O)cc2)CC1	> 50 µM (inactive)
CCOC(=O)C1CCCCN1Cc1ccc(NC(C)=O)cc1 (stereo not drawn)	> 50 µM (inactive)
CCOC(=O)C1CCN(C(=O)c2ccc(N(C)C)cc2)CC1	> 50 µM (inactive)
CCOC(=O)C1CCN(Cc2ccc(NC(C)=O)cc2)CC1	> 50 µM (inactive)
CCOC(=O)C1(CCc2ccccc2)CCN(Cc2c(O)cccc2OC)CC1	> 50 µM (inactive)
CCOC(=O)C1(CCc2ccccc2)CCN(Cc2ccc(C#CC(C)(C)O)cc2)CC1	> 50 µM (inactive)
CCOC(=O)C1(Cc2ccccc2C)CCCN(Cc2ccc(NC(C)=O)cc2)C1 (stereo not drawn)	> 50 µM (inactive)
C=Cc1ccc(C(=O)N2CCC(CCCc3ccccc3)(C(=O)OCC)CC2)cc1	> 50 µM (inactive)
CCOC(=O)C1(CCc2ccccc2)CCN(Cc2ccc(O)cc2)CC1	> 50 µM (inactive)
CCOC(=O)C1(Cc2ccccc2Cl)CCN(Cc2ccc(NC(C)=O)cc2)CC1	0.321 µM
CCOC(=O)C1(CCOc2ccccc2)CCCN(Cc2ccc(NC(C)=O)cc2)C1 (stereo not drawn)	> 50 µM (inactive)
CCOC(=O)C1(CCOC)CCCN(Cc2ccc(NC(C)=O)cc2)C1 (stereo not drawn)	> 50 µM (inactive)
CCOC(=O)C1(CCc2ccccc2)CCN(Cc2ccc(C(=O)OC)cc2)CC1	> 50 µM (inactive)
CC(=O)Nc1ccc(CN2CCCC(CO)(CCc3ccccc3)C2)cc1 (stereo not drawn)	> 50 µM (inactive)
CCOC(=O)C1(CCc2ccccc2)CCN(C(=O)Nc2ccc(C)cc2C)CC1	> 50 µM (inactive)
O=C(O)C1CCCCC1C(=O)Nc1ccc(CN2CCCCC2)cc1 (stereo not drawn)	> 50 µM (inactive)
CCOC(=O)C1CCN(Cc2ccc(N(C)C)cc2)CC1	> 50 µM (inactive)
CCOC(=O)C1(CCOC)CCN(Cc2ccc(NC(C)=O)cc2)CC1	> 50 µM (inactive)
CCOC(=O)C1CCN(CCC(=O)Nc2ccc(C)cc2)CC1	> 50 µM (inactive)
CCOC(=O)C1(CCOC)CCN(Cc2ccc(N(C)c3ccccc3)cc2)CC1	> 50 µM (inactive)
CCOC(=O)C1(CCc2ccccc2)CCN(Cc2ccncc2)CC1	> 50 µM (inactive)
C=Cc1ccc(C(=O)N2CCC(CCc3ccccc3)(C(=O)OCC)CC2)cc1	> 50 µM (inactive)
CCOC(=O)C1(CCc2ccccc2)CCN(Cc2ccc(OC)cc2)CC1	> 50 µM (inactive)

Source: PubChem BioAssay AID651764 (The Scripps Research Institute Molecular Screening Center, 2012)
